As usually defined, the melting point is the temperature of the solid-liquid transition.

The record followed here is patent publication US6525059B1, “Substituted pyrazoles as p38 kinase inhibitors” (G. D. Searle & Company, priority 1998, dated 2003).

In data set [1] the target is T1, human GST-p38 kinase alpha (Homo sapiens, UniProt Q16539).
T1 construct: The coding region of the human p38a cDNA was obtained by PCR-amplification from RNA isolated from the human monocyte cell line THP.1; made in house; host or cells: E. coli DH10B
T1 sequence (Q16539 whole entry): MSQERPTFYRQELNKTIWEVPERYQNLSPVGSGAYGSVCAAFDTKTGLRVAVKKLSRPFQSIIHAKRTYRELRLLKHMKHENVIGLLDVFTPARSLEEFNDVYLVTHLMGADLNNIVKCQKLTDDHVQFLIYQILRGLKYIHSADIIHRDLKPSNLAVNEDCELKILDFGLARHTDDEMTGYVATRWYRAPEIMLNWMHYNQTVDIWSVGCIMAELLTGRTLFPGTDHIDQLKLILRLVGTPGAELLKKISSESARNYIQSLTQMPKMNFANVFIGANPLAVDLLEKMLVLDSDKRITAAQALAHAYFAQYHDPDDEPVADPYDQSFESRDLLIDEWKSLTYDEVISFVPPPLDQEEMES
Description: p38 kinase in vitro assay, second format, phosphorylation of EGFRP with 33P-ATP. As to conditions: read-out: p38α Kinase Assay IC50. The format is biochemical. Summed up:
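Activated human GST-p38α (pre-activated with GST-MKK6, 1 h, 30 °C) phosphorylates EGFR 21-mer peptide (200 μM) with 50 μM ATP plus γ-33P-ATP, pH 7.5, 60 min at room temperature. Unreacted ATP removed by AG 1×8 resin; supernatant scintillation-counted.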

The next data set concerns TNF-α. Kind of data set: Rat assay: LPS-challenged rats, serum TNF-α by ELISA. The format is in vivo. The settings on record: Rattus norvegicus, po; for inhibition in vivo at 1 mg/kg / inhibition in vivo at 5 mg/kg: read-out: Rat LPS Assay % Inhibition. On the technique in general: In an ELISA, binding on a coated surface is turned into a signal by an enzyme label.
For another data set, the system named is human TNF. Kind of data set: TNF inhibition: human whole blood assay. As to conditions: Homo sapiens, LPS, read-out: TNF Inhibition-Human Whole Blood Assay. The format is cell-based.

Where “and” joins values, the source holds several entries; their conditions need not be identical. Equal values may be shown once. Where a name gives a salt, the structure may show the parent alone. Read-outs that look alike come from different tables or passages of the source.

For the compound `CN1CCN(c2n[nH]c(-c3ccc(C(F)(F)F)cc3)c2-c2ccncc2)CC1` [Example A-425], the melting point is 240.5 °C (dec.).
Still for that read-out and setting: the value for `CS(=O)(=O)N1CCN(c2[nH]nc(-c3ccc(Cl)cc3)c2-c2ccncc2)CC1` (hydrate or solvate) [Example A-320, 1-[5-(4-chlorophenyl)-4-(4-pyridinyl)-1H-pyrazol-3-yl]-4-(methylsulfonyl)piperazine, monohydrate] was 245 to 248 °C.
The compound `Fc1ccc(-c2[nH]nc(N3CCNCC3)c2-c2ccncc2)cc1` (as salt: hydrochloride) [Example A-172, 1-[5-(4-fluorophenyl)-4-(4-pyridinyl)-1H-pyrazol-3-yl]piperazine trihydrochloride] displayed a melting point of 204 to 206 °C.
The same measure, in the same setting: the same measure for `OCCn1nc(-c2ccc(F)cc2)c(-c2ccncc2)c1C1CC1` [Example A-192, 5-cyclopropyl-3-(4-fluorophenyl)-4-(4-pyridinyl)-1H-pyrazole-1-ethanol]: 155 to 157 °C; for `Fc1ccc(-c2n[nH]cc2-c2ccnc(Cl)n2)cc1` [Example A-299, 2-Chloro-4-[3-(4-fluorophenyl)-1H-pyrazol-4-yl]pyrimidine]: 204 to 205 °C; for `CN1CCC(N(C)c2[nH]nc(-c3ccc(Cl)cc3)c2-c2ccncc2)CC1` (hydrate or solvate): 260 to 261 °C.
The compound `CCc1cccc(-c2[nH]nc(C)c2-c2ccncc2)c1` [Example A-185, 4-[3-(3-ethylphenyl)-5-methyl-1H-pyrazol-4-yl]pyridine] gave a melting point of 189.25 °C.
Regarding `CSc1ccc(-c2[nH]nc(N3CCN(C)CC3)c2-c2ccncc2)cc1` [Example A-423, 1-[5-(4-thiomethoxyphenyl)-4-(4-pyridinyl)-1H-pyrazol-3-yl]-4-methylpiperazine], the melting point lay in the range of 275.6 to 281.9 °C.
On the same count and under the same terms, the value for `COc1ccc(CNc2nccc(-c3cn[nH]c3-c3ccc(F)cc3)n2)cc1` [Example A-305, 4-[3-(4-fluorophenyl)-1H-pyrazol-4-yl]-N-[(4-methoxyphenyl)methyl)-2-pyrimidinamine] was 183 to 185 °C; that for `Cc1c(-c2ccncc2)c(-c2ccc(Cl)cc2)nn1C` [Example A-204, 4-[3-(4-chlorophenyl)-1,5-dimethyl-1H-pyrazol-4-yl]pyridine] was 82 to 88 °C.
On the same count and under the same terms, the value for `OCCn1nc(-c2ccc(F)cc2)c(-c2ccncc2)c1-c1cnc[nH]1` [Example A-198, 3-(4-fluorophenyl)-5-(4-imidazolyl)-4-(4-pyridinyl)-1H-pyrazole-1-ethanol] was 227 to 228 °C; that for `CCn1nc(-c2ccc(Cl)cc2)c(-c2ccncc2)c1C` [Example A-206, 4-[3-(4-chlorophenyl)-1-ethyl-5-methyl-1H-pyrazol-4-yl]pyridine] was 164.36 °C.
Compound `Clc1ccccc1-c1[nH]ncc1-c1ccncc1` [Example A-209, 4-[3-(2-chlorophenyl)-1H-pyrazol-4-yl]pyridine] had a melting point of 208.46 °C.
Same read-out and setting: the value for `CSC(SC)=C(C(=O)c1ccc(F)cc1)c1ccncc1` [Example A-432] was 80.2 to 82.1 °C; that for `CSC(SC)=C(C(=O)c1ccc(Cl)cc1)c1ccncc1` [Example A-433] was 87.6 to 88.2 °C; that for `CCNc1cc(-c2c[nH]nc2-c2cccc(Cl)c2)ccn1` [Example A-222, 4-[3-(3-chlorophenyl)-1H-pyrazol-4-yl]-N-ethyl-2-pyridinamine] was 186 to 187 °C.
Consider `Fc1ccc(-c2n[nH]c(N3CCC(N4CCCC4)CC3)c2-c2ccncc2)cc1` [Example A-357, 4-[3-(4-fluorophenyl)-5-(4-(1-pyrrolidinyl)-1-piperidinyl]-1H-pyrazol-4-yl]pyridine, trihydrochloride], for which the IC50 was 120 nM in data set [1] (Table 9, 10% DMSO) and 250 nM with human TNF (Table 9, human whole blood). In the data set on TNF-α (Table 9, dose 20 mg/kg), this compound returned an inhibition in vivo at 20 mg/kg of 74%.
As to `NC1CCN(c2[nH]nc(-c3ccc(F)cc3)c2-c2ccncc2)CC1` [Example A-365, 1-[5-(4-fluorophenyl)-4-(4-pyridinyl)-1H-pyrazol-3-yl]-4-piperidinamine, trihydrochloride], the IC50 in data set [1] (Table 9, 10% DMSO) worked out at 32 nM; in the data set on human TNF (Table 9, human whole blood), 57 nM. Further, the inhibition in vivo at 1 mg/kg in the data set with TNF-α (Table 9, dose 1 mg/kg) came out at 12%. In the data set with TNF-α (Table 9, dose 5 mg/kg), the inhibition in vivo at 5 mg/kg is 50%. This compound also returned an inhibition in vivo at 20 mg/kg with TNF-α (Table 9, dose 20 mg/kg) of 95%.
As for `CCOC(=O)N1CCN(c2[nH]nc(-c3ccccc3)c2-c2ccncc2)CC1` [Example A-371, ethyl 4-[5-phenyl-4-(4-pyridinyl)-1H-pyrazol-3-yl]-1-piperazinecarboxylate], the IC50 in data set [1] (Table 9, 10% DMSO) is 7900 nM; in the data set with human TNF (Table 9, human whole blood), 25000 nM. The same compound returned an inhibition in vivo at 20 mg/kg with TNF-α (Table 9, dose 20 mg/kg) of 52%.
As for `CN1CCN(c2n[nH]c(-c3ccc(F)cc3)c2-c2ccncc2)CC1` [Example A-317, 1-[5-(4-fluorophenyl)-4-(4-pyridinyl)-1H-pyrazol-3-yl]-4-methylpiperazine, dihydrate], the IC50 in data set [1] (Table 8, 10% DMSO) turned out to be 70 nM; in the data set with human TNF (Table 8, human whole blood), 450 nM. Moreover, the inhibition in vivo at 10 mg/kg in the data set with TNF-α (Table 8, dose 10.0 mg/kg) is 69%.
As to `CCN(CC)CCCC(C)Nc1nccc(-c2c[nH]nc2-c2ccc(F)cc2)n1` (stereo not shown) [Example A-366, N1,N1-diethyl-N4-[4-[3-(4-fluorophenyl)-1H-pyrazol-4-yl]-2-pyrimidinyl]-1,4-pentanediamine], the IC50 is 41 nM and 60 nM and 40 nM in data set [1] (Table 9, 10% DMSO); 290 nM in the data set on human TNF (Table 9, human whole blood). Moreover, the inhibition in vivo at 1 mg/kg with TNF-α (Table 9, dose 1 mg/kg) stood at 6%. The inhibition in vivo at 5 mg/kg in the data set with TNF-α (Table 9, dose 5 mg/kg) came out at 45%. For the same compound, the inhibition in vivo at 20 mg/kg in the data set with TNF-α (Table 9, dose 20 mg/kg) amounted to 92%.
In the case of `OC[C@H](Cc1ccccc1)Nc1cc(-c2c[nH]nc2-c2ccc(F)cc2)ccn1` [Example A-363, (βS)-β-[[4-[3-(4-fluorophenyl)-1H-pyrazol-4-yl]-2-pyridinyl]amino]benzene propanol], the IC50 is 1500 nM in data set [1] (Table 9, 10% DMSO) and 25000 nM in the data set with human TNF (Table 9, human whole blood). For the same compound, the inhibition in vivo at 20 mg/kg in the data set with TNF-α (Table 9, dose 20 mg/kg) amounted to 6%.
The matching figures for `CCN(CC)CCCC(C)Nc1[nH]nc(-c2ccc(F)cc2)c1-c1ccncc1` (stereo not shown) [Example A-359, N1,N1,-diethyl-N4-[5-(4-fluorophenyl)-4-(4-pyridinyl)-1H-pyrazol-3-yl]-1,4-pentanediamine]: 300 nM, 1000 nM and 70%.
With `CN1CCN(Cc2n[nH]c(-c3ccc(F)cc3)c2-c2ccncc2)CC1` [A-313, Step 3, 1-[[5-(4-fluorophenyl)-4-(4-pyridinyl)-1H-pyrazol-3-yl]methyl]-4-methylpiperazine], the IC50 in data set [1] (Table 8, 10% DMSO) was 370 nM; in the data set on human TNF (Table 8, human whole blood), 120 nM. In addition, in the data set on TNF-α (Table 8, dose 20.0 mg/kg), the inhibition in vivo at 20 mg/kg worked out at 96%.
For the compound `CN1CCC(Nc2n[nH]c(-c3ccc(Cl)cc3)c2-c2ccncc2)CC1` [Example A-334, N-[5-(4-chlorophenyl)-4-(4-pyridinyl)-1H-pyrazol-3-yl]-1-methyl-4-piperidinamine], the IC50 in data set [1] (Table 8, 10% DMSO) amounted to 70 nM; in the data set on human TNF (Table 8, human whole blood) it was 220 nM. Moreover, in the data set with TNF-α (Table 8, dose 1.0 mg/kg), the inhibition in vivo at 1 mg/kg was found to be 36%. For the same compound, in the data set with TNF-α (Table 8, dose 5.0 mg/kg), the inhibition in vivo at 5 mg/kg was found to be 57%. Also, the inhibition in vivo at 20 mg/kg with TNF-α (Table 8, dose 20.0 mg/kg) was found to be 95%.
Consider `CCN1CCCCC1CCNc1cc(-c2c[nH]nc2-c2ccc(F)cc2)ccn1` (stereo not shown) [Example A-358, N-[2-(1-ethyl-2-piperidinyl)ethyl]-4-[3-(4-fluorophenyl)-1H-pyrazol-4-yl]-2-pyridinamine], for which the IC50 in data set [1] (Table 9, 10% DMSO) amounted to 230 nM; with human TNF (Table 9, human whole blood) it was 4000 nM. For the same compound, in the data set on TNF-α (Table 9, dose 20 mg/kg), the inhibition in vivo at 20 mg/kg was 71%.
